These results are taken from ChEMBL document CHEMBL2401685 (Bioorg Med Chem Lett, 2013).

In experiment [1] the target is T1, 11-beta-hydroxysteroid dehydrogenase type 2 (Rattus norvegicus) (UniProt P50233).
T1 sequence (whole entry): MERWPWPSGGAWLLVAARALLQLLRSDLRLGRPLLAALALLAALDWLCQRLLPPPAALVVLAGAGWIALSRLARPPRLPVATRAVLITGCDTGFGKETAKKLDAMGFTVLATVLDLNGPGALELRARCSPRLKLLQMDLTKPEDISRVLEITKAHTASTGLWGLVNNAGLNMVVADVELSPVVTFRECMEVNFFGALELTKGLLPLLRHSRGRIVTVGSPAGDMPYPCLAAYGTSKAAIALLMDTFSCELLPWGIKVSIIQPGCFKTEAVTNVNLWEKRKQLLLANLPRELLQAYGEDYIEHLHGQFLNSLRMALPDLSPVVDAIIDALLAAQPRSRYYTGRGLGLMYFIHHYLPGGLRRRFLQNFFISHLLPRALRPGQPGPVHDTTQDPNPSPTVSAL
In words: Inhibition of 11beta-HSD2 in rat kidney microsomes using [3H]-CORT as substrate assessed as formation of 11-DHC at 100 uM after 30 mins by radiometric analysis relative to control. The note with it: Microsome.

Experiment [2] has as its target 11-beta-hydroxysteroid dehydrogenase 1 (Rattus norvegicus) (UniProt P16232). The experiment in a line: Inhibition of 11beta-HSD1 in rat testis microsomes using [3H]-11-DHC as substrate assessed as formation of CORT at 100 uM after 60 to 90 mins by radiometric analysis relative to control. The note with it: Microsome.
Experiment [3] addresses 11-beta-hydroxysteroid dehydrogenase 1 (Rattus norvegicus, UniProt P16232). The experiment in a line: Inhibition of 11beta-HSD1 in Sprague-Dawley rat leydig cells […].
Experiment [4] deals with T2, 11-beta-hydroxysteroid dehydrogenase type 2 (Homo sapiens) (UniProt P80365).
T2 sequence (whole entry): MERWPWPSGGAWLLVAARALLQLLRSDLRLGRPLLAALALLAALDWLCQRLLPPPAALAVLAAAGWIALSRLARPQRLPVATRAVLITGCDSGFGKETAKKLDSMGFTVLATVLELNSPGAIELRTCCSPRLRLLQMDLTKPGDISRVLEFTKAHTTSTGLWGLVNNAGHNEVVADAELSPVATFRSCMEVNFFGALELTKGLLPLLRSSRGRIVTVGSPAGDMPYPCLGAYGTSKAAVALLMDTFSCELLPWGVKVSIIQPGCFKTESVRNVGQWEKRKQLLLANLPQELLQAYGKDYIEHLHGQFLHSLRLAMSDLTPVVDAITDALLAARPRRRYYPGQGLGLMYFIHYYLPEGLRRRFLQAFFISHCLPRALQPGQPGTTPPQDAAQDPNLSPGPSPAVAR
The experiment in a line: Inhibition of 11beta-HSD2 in human kidney microsomes using [3H]-cortisol as substrate assessed as formation of cortisone at 100 uM after 30 mins by radiometric analysis relative to control. Particulars: Microsome.

For experiment [5], the target named is T3, 11-beta-hydroxysteroid dehydrogenase 1 (Homo sapiens, UniProt P28845). The experiment in a line: Inhibition of human 11beta-HSD1 transfected in CHOP cells at 100 uM relative to control. The class given is cell-based.
T3 sequence (P28845 whole entry, looked up): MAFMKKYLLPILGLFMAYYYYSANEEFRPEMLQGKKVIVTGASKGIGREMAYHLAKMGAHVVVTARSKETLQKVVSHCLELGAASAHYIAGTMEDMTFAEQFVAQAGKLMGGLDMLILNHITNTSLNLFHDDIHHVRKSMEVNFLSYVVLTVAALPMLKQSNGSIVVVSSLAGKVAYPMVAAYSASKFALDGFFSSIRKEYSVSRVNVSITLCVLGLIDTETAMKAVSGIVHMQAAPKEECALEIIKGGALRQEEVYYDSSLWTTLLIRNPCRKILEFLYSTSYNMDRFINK
In experiment [6] the target is T3, 11-beta-hydroxysteroid dehydrogenase 1. The experiment in a line: Inhibition of 11beta-HSD1 in human liver microsomes using [3H]-cortisone as substrate assessed as formation of cortisol at 100 uM after 60 to 90 mins by radiometric analysis relative to control. Particulars: Microsome.
For a further experiment, the system named is J774.A1. In words: Antiinflammatory activity in mouse J774A1 cells assessed as LPS-induced TNFalpha production at 10 uM incubated 2 hrs prior to LPS challenge measured after 24 hrs by ELISA relative to vehicle-treated control. The class given is functional. (In an ELISA, binding on a coated surface is turned into a signal by an enzyme label.)
The target in experiment [7] is 11-beta-hydroxysteroid dehydrogenase 1 (Rattus norvegicus) (UniProt P16232). The experiment in a line: Inhibition of 11beta-HSD1 in Sprague-Dawley rat leydig cells […] relative to control. The note with it: 100 uM.
11-beta-hydroxysteroid dehydrogenase 1 (Rattus norvegicus), sequence (P16232 whole entry, looked up): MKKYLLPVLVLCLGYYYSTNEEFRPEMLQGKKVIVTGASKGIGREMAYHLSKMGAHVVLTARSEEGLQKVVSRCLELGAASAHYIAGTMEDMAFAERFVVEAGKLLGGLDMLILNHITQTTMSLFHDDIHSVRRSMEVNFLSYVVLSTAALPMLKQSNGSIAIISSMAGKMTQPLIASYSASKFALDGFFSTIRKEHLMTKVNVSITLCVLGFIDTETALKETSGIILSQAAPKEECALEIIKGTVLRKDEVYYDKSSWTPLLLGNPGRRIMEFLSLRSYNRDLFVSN

SMILES strings stand for the structures. Activity calls are given as the source filed them. The rule behind the calls is not given here.

11-beta-hydroxysteroid dehydrogenase 1 (Rattus norvegicus, UniProt P16232), sequence (P16232 whole entry): as the sequence (P16232 whole entry, looked up) above

On to `CCOc1ccc(/C=C/C(=O)/C=C/c2ccc(OCC)cc2)cc1`, for which the inhibition (as a rule, the drop in the measured response relative to a control, in per cent) in experiment [1] is 27%; in experiment [2] it was 7%; in experiment [4], 8%; in experiment [5], 9%; in experiment [6] it was 36%. Further, it took 9.95 µM to reach half-maximal inhibition in experiment [3] (IC50).
On to `COc1cc(/C=C2\CCC/C(=C\c3cc(OC)c(OC)c(OC)c3)C2=O)cc(OC)c1OC`, for which the inhibition in experiment [1] amounted to 23%; in experiment [2], 35%; in experiment [7], 42%; in experiment [4] it was 13%; in experiment [5], 14%; in experiment [6] it was 21%. Further, the inhibition entry in the experiment with J774.A1 was “inactive”.
Turning to `COc1cc(/C=C/C(=O)/C=C/c2ccc(OC3CCCCO3)c(OC)c2)ccc1OC1CCCCO1` (stereo not drawn), the inhibition in experiment [1] was 16%; in experiment [2], 19%; in experiment [4] it was 0%; in experiment [5], 28%; in experiment [6], 28%. Besides, half-maximal inhibition in experiment [3] (IC50) required 52.5 µM.
Regarding `CCOc1ccc(/C=C2\CCC/C(=C\c3ccc(OCC)cc3)C2=O)cc1`, the inhibition is 14% in experiment [1]; 17% in experiment [2]; 26% in experiment [7]; 11% in experiment [4]; 16% in experiment [5]; 17% in experiment [6].
`COc1cc(/C=C/C(=O)/C=C/c2cc(OC)c(OC)c(OC)c2)cc(OC)c1OC`: the inhibition in experiment [1] amounted to 11%; in experiment [2], 0%; in experiment [7], 5%; in experiment [4], 1%; in experiment [5] it was 40%; in experiment [6] it was 16%. In addition, the inhibition result in the experiment with J774.A1 is “inactive”.
For the compound `CN(C)c1ccc(/C=C2\CC/C(=C\c3ccc(N(C)C)cc3)C2=O)cc1`, the inhibition was 1% in experiment [1]; 0% in experiment [2]; 13% in experiment [7]; 0% in experiment [4]; 16% in experiment [5]; 15% in experiment [6]. Moreover, the inhibition result with J774.A1 is “inactive”.
Turning to `COc1cc(/C=C2\CC/C(=C\c3ccc(O)c(OC)c3)C2=O)ccc1O`, the inhibition in experiment [1] was 34%; in experiment [2], 52%; in experiment [7], 19%; in experiment [4], 13%; in experiment [5], 17%; in experiment [6] it was 49%.
As for `O=C1/C(=C/c2ccc(O)cc2)CC/C1=C\c1ccc(O)cc1`, the inhibition in experiment [1] came out at 17%; in experiment [2] it was 32%; in experiment [7] it was 21%; in experiment [4], 0%; in experiment [5] it was 12%; in experiment [6], 39%.
`CN(C)CCCOc1ccc(/C=C2\CC/C(=C\c3ccc(OCCCN(C)C)cc3)C2=O)cc1`: the inhibition in experiment [1] was found to be 12%; in experiment [2], 2%; in experiment [4], 24%; in experiment [5], 49%; in experiment [6] it was 15%. 4.17 µM corresponded to half-maximal inhibition in experiment [3] (IC50).
Turning to `CN(C)c1ccc(/C=C/C(=O)/C=C/c2ccc(N(C)C)cc2)cc1`, the inhibition in experiment [1] amounted to 13%; in experiment [2], 0%; in experiment [7] it was 10%; in experiment [4], 0%; in experiment [5], 29%; in experiment [6], 24%. The inhibition entry in the experiment on J774.A1 was “inactive”.
`C=CCOc1ccc(/C=C/C(=O)/C=C/c2ccc(OCC=C)c(OC)c2)cc1OC`: the inhibition in experiment [1] was 19%; in experiment [2] it was 9%; in experiment [7] it was 18%; in experiment [4], 13%; in experiment [5], 1%; in experiment [6], 14%.
Regarding `C=CCOc1ccc(/C=C2\CC/C(=C\c3ccc(OCC=C)cc3)C2=O)cc1`, the inhibition was 15% in experiment [1]; 9% in experiment [2]; 10% in experiment [7]; 0% in experiment [4]; 23% in experiment [5]; 28% in experiment [6].
For the compound `O=C1/C(=C/c2ccc(OC3CCCCO3)cc2)CCC/C1=C\c1ccc(OC2CCCCO2)cc1` (stereo not drawn), the inhibition came to 48% in experiment [1]; 45% in experiment [2]; 28% in experiment [7]; 17% in experiment [4]; 28% in experiment [5]; 14% in experiment [6]. The inhibition entry with J774.A1 was “inactive”.
In the case of `C=CCOc1ccc(/C=C/C(=O)/C=C/c2ccc(OCC=C)cc2)cc1`, the inhibition in experiment [1] is 16%; in experiment [2] it was 0%; in experiment [7] it was 22%; in experiment [4], 2%; in experiment [5] it was 4%; in experiment [6], 35%.
For the compound `CN(C)c1ccc(/C=C2\CCC/C(=C\c3ccc(N(C)C)cc3)C2=O)cc1`, the inhibition in experiment [1] worked out at 20%; in experiment [2], 16%; in experiment [7], 37%; in experiment [4], 21%; in experiment [5] it was 26%; in experiment [6], 14%. In addition, the inhibition result in the experiment with J774.A1 is “inactive”.
With `O=C1/C(=C/c2cccc(C(F)(F)F)c2F)CC/C1=C\c1cccc(C(F)(F)F)c1F`, the inhibition in experiment [1] worked out at 5%; in experiment [2] it was 2%; in experiment [7] it was 22%; in experiment [4] it was 0%; in experiment [5], 24%; in experiment [6], 23%.
As for `COc1cc(/C=C2\CC/C(=C\c3ccc(OC4CCCCO4)c(OC)c3)C2=O)ccc1OC1CCCCO1` (stereo not drawn), the inhibition is 11% in experiment [1]; 13% in experiment [2]; 18% in experiment [7]; 0% in experiment [4]; 26% in experiment [5]; 26% in experiment [6]. In addition, the inhibition entry with J774.A1 was “inactive”.
For `O=C(/C=C/c1ccc(OC2CCCCO2)cc1)/C=C/c1ccc(OC2CCCCO2)cc1` (stereo not drawn), the inhibition in experiment [1] was 24%; in experiment [2], 13%; in experiment [4], 13%; in experiment [5] it was 54%; in experiment [6] it was 36%. In addition, the inhibition result in the experiment with J774.A1 is “inactive”. Besides, half-maximal inhibition in experiment [3] (IC50) required 17.2 µM.
In the case of `C=CCOc1ccc(/C=C2\CCC/C(=C\c3ccc(OCC=C)cc3)C2=O)cc1`, the inhibition in experiment [1] was 23%; in experiment [2] it was 19%; in experiment [7], 8%; in experiment [4], 6%; in experiment [5] it was 18%; in experiment [6], 18%.
Take `O=C1/C(=C/c2ccc(OC3CCCCO3)cc2)CC/C1=C\c1ccc(OC2CCCCO2)cc1` (stereo not drawn): the inhibition in experiment [1] turned out to be 13%; in experiment [2], 11%; in experiment [7], 22%; in experiment [4], 0%; in experiment [5], 9%; in experiment [6] it was 30%. Besides, in the experiment on J774.A1, the inhibition entry was “inactive”.
With `C=CCOc1ccc(/C=C2\CCC/C(=C\c3ccc(OCC=C)c(OC)c3)C2=O)cc1OC`, the inhibition in experiment [1] came to 8%; in experiment [2] it was 15%; in experiment [7], 6%; in experiment [4], 6%; in experiment [5], 16%; in experiment [6], 7%.
On to `C=CCOc1ccc(/C=C2\CC/C(=C\c3ccc(OCC=C)c(OC)c3)C2=O)cc1OC`, for which the inhibition was determined as 0% in experiment [1]; 14% in experiment [2]; 17% in experiment [7]; 10% in experiment [4]; 31% in experiment [5]; 13% in experiment [6].
With `COc1cc(/C=C2\CC/C(=C\c3cc(OC)c(OC)c(OC)c3)C2=O)cc(OC)c1OC`, the inhibition in experiment [1] amounted to 9%; in experiment [2], 12%; in experiment [7], 18%; in experiment [4] it was 5%; in experiment [5], 31%; in experiment [6], 16%. Also, the inhibition entry with J774.A1 is “inactive”.
